From paper PMC4639779, “Peptide Functionalized Gold Nanorods for the Sensitive Detection of a Cardiac Biomarker Using Plasmonic Paper Devices” (Scientific Reports, 2015)
Several values for one entry are separate records, joined by “and”; a condition that tells them apart may be missing. Identical values can stand only once. Each block holds one molecule with its values, some of them ahead of it.

Assays:
cTnI = target: T1, cTnI (Homo sapiens, UniProt P19429); settings: identified from a phage display peptide library; cited from earlier work
T1 construct: purchased Life Diagnostics, USA
T1 sequence (P19429 whole entry): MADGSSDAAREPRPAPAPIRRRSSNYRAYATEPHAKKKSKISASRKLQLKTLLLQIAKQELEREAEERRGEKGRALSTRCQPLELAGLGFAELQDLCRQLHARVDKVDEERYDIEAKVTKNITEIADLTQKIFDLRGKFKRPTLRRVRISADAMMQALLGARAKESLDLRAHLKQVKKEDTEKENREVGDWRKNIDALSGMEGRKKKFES
Description: Gold nanorods (AuNR) are an attractive choice as plasmonic nanotransducers for label-free sensing because of their geometrical tunability of LSPR wavelength and high sensitivity. We synthesized AuNRs using a seed-mediated approach with a length of 47.3 ± 2.3 nm and a diameter of 20.2 ± 1.4 nm (Fig. 2A). The human troponin I binding peptide (-FYSHSFHENWPS-), identified from a phage display peptide library, with nanomolar (nM) binding affinity to cTnI was employed here as the biorecognition element. The conjugation of the peptide to AuNRs as achieved by introducing a cysteine residue at ...

cTnI (troponin I) = assay: LSPR detection of cTnI with bioplasmonic paper device in buffer; assay type: binding, human; settings: highest concentration tested, 3.53 μg/ml cTnI
Procedure: To probe the sensing capability of the BPDs, we exposed the BPDs to troponin I (3.53 μg/ml in 0.1 M TBS pH 8.0). […] The higher sensitivity of peptide-AuNR compared to antibody-AuNR is due to differences in the thickness of the peptide and antibody adsorbate layer as will be discussed in detail below. To probe the limit of detection in both cases, BPDs with bioconjugated AuNR were exposed to varying concentrations of cTnI. […] To compare the selectivity of the peptide and antibody towards cTnI, we used human serum albumin (HSA) as an interfering protein (Supplemental Figure S11). […] A regular laboratory filter paper (Whatman #1) was used for the absorption of nanorods. A 1 cm × 1 cm paper strip is taken and immersed in a solution of AuNR conjugates (peptide and antibody) and left overnight at 4 °C. The paper strip was taken out and washed with tris buffer and immersed in different concentrations of troponin in tris buffer (pH 8) for 2 hours at 4 °C. It was removed and washed thoroughly with tris buffer and dried under a stream of nitrogen. Extinction spectra from paper substrates were collected using a CRAIC microspectrophotometer (QDI 302) coupled to a Leica optical microscope (DM 4000 M) with 20× objective in the range of 450–800 nm with 10 accumulations and 100 ms exposure time in reflection mode. The spectral resolution of the microspectrophotometer is 0.2 nm. […]

[1] = AFM dry state thickness of recognition layer on AuNR; assay type: physicochemical
Procedure: We have also used dynamic light scattering (DLS) to monitor the changes in the hydrodynamic size of the AuNR upon bioconjugation with cTnI binding peptide or anti-cTnI. […] The dry state thickness of the peptide and antibody recognition layers was measured using atomic force microscopy (AFM; Supplemental Figure S6).
Now we turn our attention to the structure-based functional mechanism of the peptide-conjugated BPDs. The structure and thickness layer of the peptide recognition element on the gold surface was also investigated using molecular dynamic simulations (described in the supplemental section). […] The amino acid Trp[10] in the peptide (a possible binding residue to cTnI) is distal to the gold surface and accessible for cTnI binding. […] These key residues provide structural information and will be used in further studies for the optimization of peptide recognition elements for cTnI. Of importance to this study, the thickness of the biomolecule adlayer can be obtained from our molecular dynamic simulations. […] The smaller thickness of the peptide layer renders higher sensitivity of BPDs using peptide recognition elements. For calculating the thickness layer from our computational models, the gold surface is aligned in the XY plane and the thickness of the peptide or peptide-cTnI complex on the gold surface is calculated as the maximum difference of the Z-coordinates. […]

[2] = Distance-dependent refractive index sensitivity of AuNR (layer-by-layer); assay type: physicochemical
Description: We probed the distance-dependent sensitivity of the AuNRs, nanotransducers used in this study, by depositing polyelectrolyte multilayers using layer-by-layer (LbL) assembly. Extinction spectra were collected after the deposition of each bilayer comprised of poly(allylamine hydrocholoride) (PAH) as a positively charged polymer and poly(styrene sulfonate) (PSS) as a negatively charged polymer. […] It is instructive to define a parameter called distance-dependent refractive index sensitivity (σ), which is the LSPR shift caused by the deposition of a 1 nm thick dielectric layer (polyelectrolyte multilayers in the present case) at a predetermined distance from the surface of the nanotransducer. The extinction measurements after troponin binding to the bioconjugated AuNR were performed in the dry state. So, considering that the thickness of peptide and antibody in their dry state is ~1 nm and ~4.2 nm for peptide and antibody, respectively, the values of σ are computed as shown in Fig. 5E. For peptide recognition elements, σ is found to be 6.67 nm/nm whereas in case of antibody, σ is found to be 4.33 nm/nm. From the distance-dependent refractive index sensitivity measurements, it can be seen that the local refractive index sensitivity with peptide recognition elements is nearly 50% higher than compared to that with antibody-based recognition elements. […] This discrepancy can possibly be due to the higher number of cTnI molecules bound on the AuNR surface in the case of the peptide recognition elements compared to antibodies. The low steric hindrance of the peptides facilitates a higher density of the recognition elements on the surface of the Au nanotransducers and thus a higher density of cTnI molecules. This observation will be further explored in future studies in order to maximize the sensitivity of our BPDs.
Glass substrates were modified by 1% P2VP followed by the adsorption of AuNR. […]

[3] = target: T2, Human Cardiac Troponin-I Recombinant (human, UniProt P19429 1-210); assay: pull-down; peptide-conjugated AuNRs with cTnI; SDS-PAGE, blotted with polyclonal goat antibody; settings: both partners purified
T2 construct: human cardiac troponin I, recombinant, bought; also called cTnI; source: bought: Life Diagnostics, USA (recombinant)
T2 sequence (P19429 whole entry): as above

Molecule: -FYSHSFHENWPS-
binding affinity to cTnI (cTnI): nanomolar

thickness of recognition layer on AuNR [1]: 0.96 nm and ~ 0.9 nm | distance-dependent refractive index sensitivity (σ) ([2]; AuNRs on glass, PAH/PSS multilayers, at dry thickness of ~1 nm (peptide) or ~4.2 nm (antibody)): 6.67 nm/nm | corresponding LSPR shift from the distance-dependence curve ([2]; from σ curve of Fig. 5E): 24.5 nm | local refractive index sensitivity higher than with antibody-based recognition elements ([2]; peptide vs antibody): ~50%
Molecule: -FYSHSFHENWPSC- [cysteine-modified peptide]
LSPR shift higher than with antibodies as recognition elements (cTnI (troponin I)): ~100%

binding result [3]: binds
B1: cysteine-modified human troponin I binding peptide (-FYSHSFHENWPSC-) (peptide)
peptide: FYSHSFHENWPSC
notes: In all assays the peptide was attached to gold (Au surface of the QCM, or gold nanorods) by an Au-S linkage through its C-terminal cysteine; source: synthetic peptide, bought: Genscript USA Inc
